Measurements published in patent US8691818B2, “Cyclic triazo and diazo sodium channel blockers” (University Of Greenwich, priority 2008, dated 2014).
Like-named read-outs stand apart in the source and are kept apart here.

Legend:
sodium channel = experiment: [14C]guanidine flux: veratrine-evoked uptake of [14C]guanidine into rat forebrain synaptosomes (primary sodium channel assay); type: biochemical; conditions: 30° for 2½ min
Outline: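 Synaptosomal fraction from male Wistar rat forebrain (without cerebellum/medulla), 20-25 mg wet weight/ml. Veratrine-evoked [14C]guanidine uptake at 30° for 2½ min across a compound concentration range; IC50 from concentration-effect curves, mean±sem.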

hERG = hERG (Homo sapiens, UniProt Q12809); experiment: hERG: inhibition of binding of [3H]astemizole to HEK-293 cells expressing human recombinant hERG; conditions: for hERG % inhibition @ 10 μM: [3H]astemizole binding; for inhibition at 10 µM: human, probe [3H]astemizole
hERG, sequence (Q12809 whole entry): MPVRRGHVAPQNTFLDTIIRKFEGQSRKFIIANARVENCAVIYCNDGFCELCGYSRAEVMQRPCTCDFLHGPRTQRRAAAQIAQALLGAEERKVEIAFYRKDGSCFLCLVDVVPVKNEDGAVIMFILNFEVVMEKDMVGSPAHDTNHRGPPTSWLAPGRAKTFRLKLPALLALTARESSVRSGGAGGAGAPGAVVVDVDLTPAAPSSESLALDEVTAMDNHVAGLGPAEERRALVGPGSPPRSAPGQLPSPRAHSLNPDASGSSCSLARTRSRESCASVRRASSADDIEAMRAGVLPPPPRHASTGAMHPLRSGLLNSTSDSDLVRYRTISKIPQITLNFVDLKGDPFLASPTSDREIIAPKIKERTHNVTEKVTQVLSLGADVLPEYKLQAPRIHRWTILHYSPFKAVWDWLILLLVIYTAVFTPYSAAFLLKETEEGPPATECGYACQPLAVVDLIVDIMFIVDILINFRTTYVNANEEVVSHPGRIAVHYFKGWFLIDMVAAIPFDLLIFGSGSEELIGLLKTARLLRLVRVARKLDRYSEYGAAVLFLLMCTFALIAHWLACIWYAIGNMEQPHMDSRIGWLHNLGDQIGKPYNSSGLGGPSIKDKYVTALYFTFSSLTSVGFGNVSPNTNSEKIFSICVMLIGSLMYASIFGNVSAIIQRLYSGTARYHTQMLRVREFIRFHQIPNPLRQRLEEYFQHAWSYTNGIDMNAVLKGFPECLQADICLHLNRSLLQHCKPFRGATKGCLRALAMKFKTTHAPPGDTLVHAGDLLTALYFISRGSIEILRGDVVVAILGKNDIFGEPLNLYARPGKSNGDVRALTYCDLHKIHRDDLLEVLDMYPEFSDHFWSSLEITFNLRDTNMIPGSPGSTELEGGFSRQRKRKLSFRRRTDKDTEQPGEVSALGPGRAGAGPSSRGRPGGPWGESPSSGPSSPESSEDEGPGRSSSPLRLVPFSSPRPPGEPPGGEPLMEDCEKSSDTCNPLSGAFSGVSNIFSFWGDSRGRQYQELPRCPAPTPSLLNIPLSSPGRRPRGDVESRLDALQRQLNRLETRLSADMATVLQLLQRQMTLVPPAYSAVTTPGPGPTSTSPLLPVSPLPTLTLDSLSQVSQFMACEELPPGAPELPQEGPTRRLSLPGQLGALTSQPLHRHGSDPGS

[1] = target: T1, DiHydroFolate Reductase (DHFR) (Rattus norvegicus, UniProt Q920D2); experiment: Inhibition of binding of [3H]methotrexate to rat liver homogenate supernatant; conditions: for inhibition at 125 µM: read-out: [3H]mtx binding (% inhibition @ 125 μM); for inhibition at 99 µM: read-out: [3H]mtx binding % inhibition (* 99 μM, *** uses fresh batch of supernatant), 99 μM, fresh batch of supernatant
T1 construct: from tissue; host or cells: rat liver homogenate supernatant
T1 sequence (Q920D2 1-187): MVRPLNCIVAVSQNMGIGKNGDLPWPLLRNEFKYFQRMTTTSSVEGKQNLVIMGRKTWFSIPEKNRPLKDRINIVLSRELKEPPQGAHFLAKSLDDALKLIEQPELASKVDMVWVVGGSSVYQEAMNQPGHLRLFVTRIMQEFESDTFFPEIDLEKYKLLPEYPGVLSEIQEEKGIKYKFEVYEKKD
Outline: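 Displacement of [3H]methotrexate binding to rat liver homogenate supernatant, prepared at 4 °C in pH 6.0 phosphate buffer with 15 mM dithiothreitol. Values are mean±sem over the number of experiments shown.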

Sodium Channel, Site 2 = type: binding, Wistar Rat; conditions: for IC50: read-out: [3H]BTX-B binding Extrapolated IC50
[2] = read-out: hERG IC50 (μM) (extrapolated from 10 μM inh'n), extrapolated assuming binding slope 1.0

Compound | IC50 (sodium channel) [µM] | melting point [°C] | IC50 (hERG) [µM] | inhibition at 10 µM (hERG) [%] | inhibition at 125 µM ([1]; 125 μM) [%] | further results
3,5-Diamino-6-[1-(2,5-dimethoxynaphthyl)-1,2,4-triazine [CEN-157] | 204 | – | – | – | – | hERG % inhibition @ 10 μM (hERG): 6%; IC50 (hERG; [2]): 157 µM; [3H]mtx binding (% inhibition @ 125 μM) ([1]; 125 μM): −1%
Nc1ncc(-c2cccc(Cl)c2Cl)c(N)n1 [CEN-41, 2,4-Diamino-5-(2,3-dichlorophenyl)pyrimidine] | 60.3 | 289 to 291 | > 200 | -3 | 76 | –
CCn1nc(-c2cccs2)c(N)nc1=N [CEN-62, 5(3)-Amino-6-(2-thienyl)-2,3(2,5)-dihydro-3(5)-imino-2-ethyl-1,2,4-triazine methanesulfonate] | 141 | – | > 200 | -13 | 46 | –
CCn1nc(-c2ccc3ccccc3c2)c(N)nc1=N [CEN-75, 5(3)-Amino-6-(2-naphthyl)-2,3(2,5)-dihydro-3(5)-imino-2-ethyl-1,2,4-triazine methanesulfonate] | 49 | – | 3 | 78 | 5 | –
Cn1nc(-c2ccc3ccccc3c2)c(N)nc1=N [CEN-76, 5(3)-Amino-6-(2-naphthyl)-2,3(2,5)-dihydro-3(5)-imino-2-methyl-1,2,4-triazine methanesulfonate] | 77.6 | – | 4 | 74 | 6 | –
CCn1nc(-c2cccc3ccccc23)c(N)nc1=N [CEN-77, 5(3)-Amino-6-(1-naphthyl)-2,3(2,5)-dihydro-3(5)-imino-2-ethyl-1,2,4-triazine] | 14.5 | 191 to 193 | 18 | 36 | -1 | –
Cn1nc(-c2cccc3ccccc23)c(N)nc1=N [CEN-78, 5(3)-Amino-6-(1-naphthyl)-2,3(2,5)-dihydro-3(5)-imino-2-methyl-1,2,4-triazine] | 102 | 248 to 250 | 32 | 24 | 9 | –
Cn1nc(-c2cc(Cl)sc2Cl)c(N)nc1=N [CEN-80, 5(3)-Amino-6-[3-(2,5-dichlorothienyl)]-2,3(2,5)-dihydro-3(5)-imino-2-methyl-1,2,4-triazine] | 123 | 286 to 288 | 61 | 14 | -1 | –
Cn1nc(-c2ccc3c(c2)OC(F)(F)O3)c(N)nc1=N [CEN-81, 5(3)-Amino-6-[5-(2,2-difluorobenzodioxolo)]-dihydro-3(5)-imino-2-methyl-1,2,4-triazine] | 251 | 297 to 298 | 49 | 17 | -2 | –
Nc1nnc(-c2ccc(Oc3ccccc3)cc2)c(N)n1 [CEN-93, 3,5-Diamino-6-(4-phenoxphenyl)-1,2,4-triazine] | 63.1 | 266 to 267 | 19 | 35 | 4 | –
CS(=O)(=O)O.Cn1nc(C23CC4CC(CC(C4)C2)C3)c(N)nc1=N [CEN-100, 6-Adamantyl-5(3)-amino-2,3(2,5)-dihydro-3(5)-imino-2-methyl-1,2,4-triazine methanesulfonate] | 77.6 | – | – | – | – | hERG % inhibition @ 10 μM (hERG): 30%; IC50 (hERG; [2]): 23 µM; [3H]mtx binding (% inhibition @ 125 μM) ([1]; 125 μM): 10%
Cn1nc(-c2ccccc2Oc2ccccc2)c(N)nc1=N [CEN-105, 5(3)-Amino-6-(2-phenoxyphenyl)-2,3(2,5)-dihydro-3(5)-imino-2-methyl-1,2,4-triazine] | 100 | 164 to 166 | 19 | 35 | 86 | –
Cn1nc(-c2cccc3c2CCCC3)c(N)nc1=N [CEN-120, 5(3)-Amino-6-[1-(5,6,7,8-tetrahydronaphthyl)]-2,3(2,5)-dihydro-3(5)-imino-2-methyl-1,2,4-triazine methanesulfonate] | 195 | – | 157 | 6 | 18 | –
Cc1ccc(-c2nnc(N)nc2-c2ccc(C)cc2)cc1 [CEN-126, 3-Amino-5,6-bis(4-methylphenyl)-1,2,4-triazine] | 58.9 | 134 to 136 | 3 | 79 | -12 | –
COc1ccc(-c2nnc(N)nc2-c2ccc(OC)cc2)cc1 [CEN-127, 3-Amino-5,6-bis(4-methoxylphenyl)-1,2,4-triazine] | 85.1 | 179 to 181 | > 200 | 2 | -24 | –
Nc1nnc2c3ccccc3c3ccccc3c2n1 [CEN-128] | 251 | – | 53 | 16 | – | inhibition at 125 µM [1]: 0%

Compound | IC50 (sodium channel) [µM] | melting point [°C] | IC50 (hERG) [µM] | inhibition at 10 µM (hERG) [%] | inhibition at 125 µM ([1]; 125 μM) [%] | further results
Nc1nnc(-c2cccc3c2-c2ccccc2C3)c(N)n1 [CEN-129] | 190 | 240 to 242 | 133 | 7 | -3 | –
Cn1nc(-c2cccc(-c3ccccc3)c2)c(N)nc1=N [CEN-161, 5(3)-Amino-6-(3-biphenyl)-2,3(2,5)-dihydro-3(5)-imino-2-methyl-1,2,4-triazine methanesulfonate] | 16 | – | 1 | 88 | -7 | –
COc1ccc2cc(C(C)c3nnc(N)nc3N)ccc2c1 (centres unmarked) [CEN-165, 3,5-Diamino-6-[1-(6-methoxynaphthalene)ethy)-1,2,4-triazine] | 372 | – | – | – | – | hERG % inhibition @ 10 μM (hERG): 23%; IC50 (hERG; [2]): 34 µM; [3H]mtx binding (% inhibition @ 125 μM) ([1]; 125 μM): −4%
Nc1nnc(-c2ccc(Cl)nc2Cl)c(N)n1 [CEN-174, 3,5-Diamino-6-[3-(2,6-dichloropyidyl)]-1,2,4-triazine] | 589 | – | 101 | 9 | 4 | –
Cn1nc(-c2cccc(C(F)(F)F)c2Cl)c(N)nc1=N [CEN-177, 5(3)-Amino-6-(2-chloro-3-trifluoromethyphenyl)-2,3(2,5)-dihydro-3(5)-imino-2-methyl-1,2,4-triazine] | 14 | 205 to 207 | 35 | 22 | 16 | –
Nc1nnc(C2c3ccccc3Oc3ccccc32)c(N)n1 [CEN-182, 3,5-Diamino-6-(9-xanthyl)-1,2,4-triazine] | 214 | 159 to 161 | 90 | 10 | 6 | –
Nc1nnc(-c2cccc(OCc3c(Cl)cccc3Cl)c2)c(N)n1 [CEN-185, 3,5-Diamino-6-[3-(2,6-dichlorobenzyloxy)phenyl]-1,2,4-triazine] | 3 | 190 to 192 | – | – | 90 | –
CC(C)(C)c1cc(-c2nnc(N)nc2N)cc(C(C)(C)C)c1 [CEN-187, 3,5-Diamino-6-(3,5-di-tert-butylphenyl)-1,2,4-triazine] | 447 | 278 to 280 | – | – | 99 | –
CCn1nc(-c2cc(C(C)(C)C)cc(C(C)(C)C)c2)c(N)nc1=N [CEN-189, 5(3)-Amino-6-(3,5 bis-tert-butylphenyl)-2,3(2,5)-dihydro-3(5)-imino-2-ethyl-1,2,4-triazine methanesulphonate] | 468 | – | 90 | 10 | 2 | –
COc1cc(OC)cc(-c2nnc(N)nc2N)c1 [CEN-192, 3,5-Diamino-6-(3,5-dimethoxyphenyl)-1,2,4-triazine] | > 2000 | 225 to 228 | – | – | – | inhibition at 99 µM [1]: 91%
Nc1nnc(-c2cc(OCC(F)(F)F)cc(OCC(F)(F)F)c2)c(N)n1 [CEN-193, 3,5-Diamino-6-[3,5-bis(2,2,2-trifluoroethoxy)phenyl]-1,2,4-triazine] | 135 | 185 to 187 | – | – | – | inhibition at 99 µM [1]: 99%
Nc1nnc(-c2cc(C(F)(F)F)cc(Cl)c2F)c(N)n1 [CEN-197, 3,5-Diamino-6-(3-chloro-2-fluoro-5-trifluoromethylphenyl)-1,2,4-triazine] | 91 | 218 to 220 | – | – | – | inhibition at 99 µM [1]: 95%
Cc1ccc(S(=O)(=O)O)cc1.Nc1nnc(-c2cc(C(F)(F)F)ccc2C(F)(F)F)c(N)n1 [CEN-198, 3,5-Diamino-6-[2,5-bis(trifluoromethyl)phenyl]-1,2,4-triazine tosylate] | – | – | – | – | – | [3H]BTX-B binding % inhibition (@ 10 μM) (Sodium Channel, Site 2): 23%; IC50 (Sodium Channel, Site 2): 34 µM
Nc1nnc(-c2cccc(C(F)(F)F)c2Cl)c(N)n1 [CEN-199, 3,5-Diamino-6-(2-chloro-3-trifluoromethylphenyl)-1,2,4-triazine] | – | – | – | – | – | [3H]BTX-B binding % inhibition (@ 10 μM) (Sodium Channel, Site 2): 29%; IC50 (Sodium Channel, Site 2): 25 µM
CC(C)C(c1ccccc1)c1nnc(N)nc1N (centres unmarked) [CEN-201, 3,5-Diamino-6-(1-isopropyl-1-phenylmethy)-1,2,4-triazine] | – | – | – | – | – | [3H]BTX-B binding % inhibition (@ 10 μM) (Sodium Channel, Site 2): 3%; IC50 (Sodium Channel, Site 2): > 200 µM
